In series [1] the test system is Caco-2 cell line. Briefly: MTT cytotoxicity assay, Caco-2. The settings on record: read-out: In vitro cytotoxic activity IC50 Caco-2. For orientation: Tetrazolium dyes change colour on reduction, which living cells bring about.
Another series concerns HepG-2 cell line. The series is described as follows: MTT cytotoxicity assay, HepG-2. It counts as cell-based, human. The settings on record: read-out: In vitro cytotoxic activity IC50 HepG-2.
In the next series the target is EGFR^Wt (Homo sapiens, UniProt P00533). Briefly: EGFR kinase assay kit. It is filed as biochemical. The following applies: for IC50: Enzyme inhibitory activity IC50 EGFR^Wt, average of three independent tests; for inhibition at 10 µM: read-out: EGFR^Wt Inhibitory%.
EGFR^Wt, sequence (P00533 25-1210): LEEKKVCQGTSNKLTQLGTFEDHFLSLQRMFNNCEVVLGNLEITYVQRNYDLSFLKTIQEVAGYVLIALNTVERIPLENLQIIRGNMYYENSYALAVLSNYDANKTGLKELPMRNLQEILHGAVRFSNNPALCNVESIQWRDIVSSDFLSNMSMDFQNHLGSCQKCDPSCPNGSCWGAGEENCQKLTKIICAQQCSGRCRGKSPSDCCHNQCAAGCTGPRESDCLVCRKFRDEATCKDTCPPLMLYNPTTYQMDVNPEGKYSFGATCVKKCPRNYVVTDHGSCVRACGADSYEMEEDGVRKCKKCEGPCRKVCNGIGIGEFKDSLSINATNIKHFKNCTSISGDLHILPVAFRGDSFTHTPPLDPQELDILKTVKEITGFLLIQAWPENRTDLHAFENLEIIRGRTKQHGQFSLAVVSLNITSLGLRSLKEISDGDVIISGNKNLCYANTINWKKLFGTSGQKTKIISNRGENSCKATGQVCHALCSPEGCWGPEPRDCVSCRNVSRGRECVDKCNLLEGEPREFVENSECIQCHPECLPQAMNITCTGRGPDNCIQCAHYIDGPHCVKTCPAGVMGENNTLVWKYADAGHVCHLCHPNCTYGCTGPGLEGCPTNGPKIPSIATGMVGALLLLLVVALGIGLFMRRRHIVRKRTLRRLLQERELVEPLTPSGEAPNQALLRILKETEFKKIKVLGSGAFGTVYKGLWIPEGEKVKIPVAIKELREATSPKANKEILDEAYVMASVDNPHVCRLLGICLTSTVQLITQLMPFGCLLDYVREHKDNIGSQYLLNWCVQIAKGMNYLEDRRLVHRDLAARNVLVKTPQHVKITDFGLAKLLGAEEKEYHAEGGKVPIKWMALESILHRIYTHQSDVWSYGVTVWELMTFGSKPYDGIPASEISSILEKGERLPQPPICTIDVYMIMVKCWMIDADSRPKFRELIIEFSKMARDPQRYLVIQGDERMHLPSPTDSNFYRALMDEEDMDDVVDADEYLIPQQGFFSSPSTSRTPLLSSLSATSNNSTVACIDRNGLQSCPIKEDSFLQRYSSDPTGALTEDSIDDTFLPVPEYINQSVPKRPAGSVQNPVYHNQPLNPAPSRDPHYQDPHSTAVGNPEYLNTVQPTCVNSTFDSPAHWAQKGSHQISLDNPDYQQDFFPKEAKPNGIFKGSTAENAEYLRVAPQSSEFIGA
The next series deals with VEGFR-2 (Homo sapiens, UniProt P35968). The series is described as follows: biochemical.
VEGFR-2, sequence (P35968 20-1356): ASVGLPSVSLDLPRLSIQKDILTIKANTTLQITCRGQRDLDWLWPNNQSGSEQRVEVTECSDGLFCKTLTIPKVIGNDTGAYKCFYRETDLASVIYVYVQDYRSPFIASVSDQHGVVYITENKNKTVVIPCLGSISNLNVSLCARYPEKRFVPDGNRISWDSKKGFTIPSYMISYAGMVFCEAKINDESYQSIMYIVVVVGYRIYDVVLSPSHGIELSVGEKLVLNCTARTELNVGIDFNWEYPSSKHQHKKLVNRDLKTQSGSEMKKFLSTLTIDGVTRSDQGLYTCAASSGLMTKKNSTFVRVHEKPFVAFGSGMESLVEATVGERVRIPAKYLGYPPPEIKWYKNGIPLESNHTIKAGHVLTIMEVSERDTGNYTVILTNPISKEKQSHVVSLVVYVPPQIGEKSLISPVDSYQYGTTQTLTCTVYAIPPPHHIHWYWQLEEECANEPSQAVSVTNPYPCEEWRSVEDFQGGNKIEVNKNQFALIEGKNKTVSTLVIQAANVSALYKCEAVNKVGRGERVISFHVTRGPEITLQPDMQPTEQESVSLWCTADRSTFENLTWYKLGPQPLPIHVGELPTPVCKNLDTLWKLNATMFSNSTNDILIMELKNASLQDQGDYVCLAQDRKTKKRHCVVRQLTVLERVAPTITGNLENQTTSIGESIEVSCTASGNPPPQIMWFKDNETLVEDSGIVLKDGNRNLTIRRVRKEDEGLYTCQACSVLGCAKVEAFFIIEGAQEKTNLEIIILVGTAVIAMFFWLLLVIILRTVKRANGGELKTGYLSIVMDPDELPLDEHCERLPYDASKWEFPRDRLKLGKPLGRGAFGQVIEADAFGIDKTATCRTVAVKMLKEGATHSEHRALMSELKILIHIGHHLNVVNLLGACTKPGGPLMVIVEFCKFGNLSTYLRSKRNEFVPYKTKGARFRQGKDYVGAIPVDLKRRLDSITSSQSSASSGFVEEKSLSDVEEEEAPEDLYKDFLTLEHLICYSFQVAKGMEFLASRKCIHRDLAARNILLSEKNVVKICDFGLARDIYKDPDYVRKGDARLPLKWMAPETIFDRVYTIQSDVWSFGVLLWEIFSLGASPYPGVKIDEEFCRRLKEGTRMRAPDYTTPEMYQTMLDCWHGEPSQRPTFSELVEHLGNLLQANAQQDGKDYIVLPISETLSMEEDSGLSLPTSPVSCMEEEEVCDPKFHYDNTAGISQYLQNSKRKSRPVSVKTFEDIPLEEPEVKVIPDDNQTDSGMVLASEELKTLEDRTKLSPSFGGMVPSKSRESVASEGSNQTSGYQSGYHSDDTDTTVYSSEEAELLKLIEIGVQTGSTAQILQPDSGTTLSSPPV
The next series deals with Caco-2 cells. The series is described as follows: Annexin-V/propidium iodide apoptosis assay. It counts as cell-based, human.
The test system of series [2] is Caco-2 cell line. The series is described as follows: Flow cytometry cell cycle analysis. The settings on record: Caco-2, treated at IC50 7.83 μM. It is filed as cell-based, human. (In general: Flow cytometry measures light scatter and fluorescence of single cells or particles in a stream.)

Where “and” joins values, the source holds several entries; their conditions need not be identical. Identical values can stand only once. Like-named read-outs stand apart in the source and are kept apart here.

As usually defined, the IC50 is the point on the concentration scale where inhibition reaches its midpoint. In the case of `CCOC(=O)c1ccc(-n2c(C)cc(C)c(C#N)c2=O)cc1` [Compound 2, ethyl 4-(3-cyano-4,6-dimethyl-2-oxopyridin-1(2H)-yl)benzoate], the IC50 in the series with Caco-2 cell line [1] (Homo sapiens, Caco-2, 24 h) turned out to be 41.5 ± 2.5 µM; in the series with HepG-2 cell line (Homo sapiens, HepG2, 24 h), 51.6 ± 2.9 µM.
As for `CCOC(=O)c1ccc(-n2c(C)cc(/C=C/c3ccc(OC)cc3)c(C#N)c2=O)cc1` [Compound 3a, Ethyl (E)-4-(3-cyano-4-(4-methoxystyryl)-6-methyl-2-oxopyridin-1(2H)-yl)benzoate], the half-maximal inhibitory concentration (IC50) with Caco-2 cell line [1] (Homo sapiens, Caco-2, 24 h) came to 84.4 ± 4 µM; in the series with HepG-2 cell line (Homo sapiens, HepG2, 24 h), 78.2 ± 3.8 µM.
In the same order, the values of `CCOC(=O)c1ccc(-n2c(C)cc(/C=C/c3ccc(OCC)cc3)c(C#N)c2=O)cc1` [Compound 3b, Ethyl (E)-4-(3-cyano-4-(4-ethoxystyryl)-6-methyl-2-oxopyridin-1(2H)-yl)benzoate] are 75.7 ± 3.5 µM and 63.1 ± 3.4 µM.
In the same order, the values of `CCOC(=O)c1ccc(NC(=O)C2=C3C(=Nc4ccccc43)NC2=O)cc1` [Compound 6, ethyl 4-(2-oxo-1,2-dihydropyrrolo[2,3-b]indole-3-carboxamido)benzoate] are 45.4 ± 2.7 µM and 39.3 ± 2.5 µM.
For `CCOC(=O)c1ccc(N2C(N)=C(C#N)C3(C(=O)Nc4ccccc43)C(C#N)=C2O)cc1` (stereo not shown) [Compound 7, Ethyl 4-(2′-amino-3′,5′-dicyano-6′-hydroxy-2-oxo-1′H-spiro[indoline-3,4′-pyridin]-1′-yl)benzoate], the IC50 in the series with Caco-2 cell line [1] (Homo sapiens, Caco-2, 24 h) was 7.83 ± 0.5 µM; on EGFR^Wt it was < 0.25 µM and 0.124 µM; at VEGFR-2 (Enzyme inhibitory activity IC50 VEGFR-2, average of three independent tests), 0.221 ± 0.009 µM; in the series on HepG-2 cell line (Homo sapiens, HepG2, 24 h), 8.9 ± 0.6 µM. The inhibition at 10 µM at EGFR^Wt is 88.4%; at VEGFR-2 (read-out: VEGFR-2 Inhibitory%), 87%. Further, the “Early apoptosis, increase compared to the control” value in the series on Caco-2 cells (Caco-2, at IC50) is given as 67.60 folds. Also, the “Late apoptosis, increase compared to the control” value with Caco-2 cells (Caco-2, at IC50) is 100.11 folds. Also, the “Apoptosis Late” value with Caco-2 cells (Caco-2, at IC50 for 24 h, control 0.17) stood at 17.02%. For the same compound, the “Apoptosis Early” value in the series on Caco-2 cells (Caco-2, at IC50 for 24 h, control 0.33) was 22.31%. In the series with Caco-2 cells (Caco-2, at IC50 for 24 h, control 1.42), this compound registered a Necrosis of 3.02%. For the same compound, the “Apoptosis Total” value with Caco-2 cells (Caco-2, at IC50 for 24 h, control 1.92) is 42.35%. The “Cell cycle distribution, S phase” value in the series with Caco-2 cell line [2] (untreated 31.18%) is 42.07%. Moreover, the “Cell cycle distribution, G0-G1” value in the series with Caco-2 cell line [2] (untreated 54.69%) is on record as 51.08%. In addition, the “Cell cycle distribution, G2/M” value with Caco-2 cell line [2] (untreated […]%) was found to be 6.85%.
Turning to `CCOC(=O)C1=C(N)N(c2ccc(C(=O)OCC)cc2)C(O)=C(C#N)C12C(=O)Nc1ccccc12` (stereo not shown) [Compound 8, Ethyl 2′-amino-5′-cyano-1′-(4-(ethoxycarbonyl)phenyl)-6′-hydroxy-2-oxo-1′H spiro[indoline-3,4′-pyridine]-3′-carboxylate], the IC50 in the series with Caco-2 cell line [1] (Homo sapiens, Caco-2, 24 h) turned out to be 13.6 ± 1.2 µM; in the series with HepG-2 cell line (Homo sapiens, HepG2, 24 h) it was 8.42 ± 0.7 µM.
Consider `CCOC(=O)c1ccc(-n2c(N)c(C#N)c(CC#N)c(C#N)c2=O)cc1` [Compound 10, ethyl 4-(6-amino-3,5-dicyano-4-(cyanomethyl)-2-oxopyridin-1(2H)-yl)benzoate], for which the half-maximal inhibitory concentration (IC50) was found to be 37.8 ± 2.3 µM with Caco-2 cell line [1] (Homo sapiens, Caco-2, 24 h) and 25.2 ± 1.9 µM with HepG-2 cell line (Homo sapiens, HepG2, 24 h).
For `CCOC(=O)c1ccc(-n2c(-c3ccc(C)cc3)cc(-c3ccc(O)cc3)c(C#N)c2=O)cc1` [Compound 11, Ethyl 4-(3-cyano-4-(4-hydroxyphenyl)-2-oxo-6-(p-tolyl)pyridin-1(2H)-yl)benzoate], the IC50 in the series on Caco-2 cell line [1] (Homo sapiens, Caco-2, 24 h) is 19.2 ± 1.4 µM; in the series with HepG-2 cell line (Homo sapiens, HepG2, 24 h), 14.9 ± 1.2 µM.
Regarding `COc1cccc2c1C(=O)c1c(O)c3c(c(O)c1C2=O)C[C@@](O)(C(=O)CO)C[C@@H]3O[C@H]1C[C@H](N)[C@H](O)[C@H](C)O1` [Doxorubicin, reference compound], at EGFR^Wt, 0.349 ± 0.016 µM corresponded to half-maximal inhibition (IC50) and the inhibition at 10 µM was found to be 77.6%. Besides, the IC50 with HepG-2 cell line (Homo sapiens, HepG2, 24 h) stood at 4.5 ± 0.2 µM.
With “ethyl 4-(3′,5′-dicyano-2′,6′-dihydroxy-1,3-dioxo-1,3-dihydro-1′H-spiro[indene-2,4′-pyridin]-1′-yl)benzoate [Compound 5]”, the half-inhibitory concentration (IC50) with Caco-2 cell line [1] (MTT, 24 h incubation, Caco-2) is 9.78 ± 0.7 µM; in the series on HepG-2 cell line (MTT, 24 h incubation, HepG-2) it was 10.6 ± 0.8 µM.

The values above are taken from paper PMC10069231 (RSC Advances, 2023).
